Experimental findings from US12281122B1, “PI3K inhibitors” (Cogent Biosciences, Inc., priority 2023, dated 2025) are described below.

In assay [1] the test system is T47D (PI3Kα-H1047R) cell line. Description: HTRF phospho-AKT(S473) cell assay in T47D cells. In kind it is cell-based, human. In short, it runs like this:
(§1)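 HTRF read-out of phospho-AKT(S473) in lysates gave IC50 values after 2 h compound exposure at 37° C. Dose series was 12 points at 1:3, topping at 5 μM for T47D and 10 μM for SKBR3. Only SKBR3 received 70 ng/ml PDGF-BB during the last 15 minutes.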

The test system of assay [2] is SKBR3 (PI3Kα-Wild Type) cell line. The assay can be described thus: HTRF phospho-AKT(S473) cell assay in SKBR3 cells. In kind it is cell-based, human. The method, boiled down:
as §1
(Time-resolved FRET reads energy transfer from a long-lived donor to a nearby acceptor.)

[3] abbreviates: Homo sapiens; HTRF phospho-AKT(S473), T47D (PI3Kα-H1047R) cells, 2 hours compound incubation.
The mark [4] stands for this setting: Homo sapiens, SK-BR-3; HTRF phospho-AKT(S473), SKBR3 (PI3Kα-Wild Type) cells, 2 hours compound incubation, PDGF-BB stimulated.
Setting [5] is: Homo sapiens; T47D (PI3Kα-H1047R) cells, HTRF phospho-AKT(S473), 2 hours compound incubation.
Setting [6] is: Homo sapiens, SK-BR-3; SKBR3 (PI3Kα-Wild Type) cells, HTRF phospho-AKT(S473), 2 hours compound incubation, PDGF-BB stimulated.

For the compound `Cc1cc([C@@H](C)Nc2ccc(Cl)nc2C(=O)NS(C)(=O)=O)c2nc(N3C[C@@H]4[C@H](C3)[C@H]4c3cc(C)[nH]n3)n(C)c(=O)c2c1` [Compound 510, 6-chloro-3-(((R)-1-(3,6-dimethyl-2-((1R,5S,6R)-6-(5-methyl-1H-pyrazol-3-yl)-3-azabicyclo[3.1.0]hexan-3-yl)-4-oxo-3,4-dihydroquinazolin-8-yl)ethyl)amino)-N-(methylsulfonyl) picolinamide], the IC50 in assay [1] (setting [3]) lay within 0.25 to 0.5 µM; in assay [2] (setting [4]), 1 to 5 µM.

`Cc1cc([C@@H](C)Nc2ccc(Cl)nc2C(=O)NS(C)(=O)=O)c2nc(N3C[C@@H]4[C@H](C3)[C@H]4c3ncn(C(C)C)n3)n(C)c(=O)c2c1` [Compound 551, 6-chloro-3-(((R)-1-(2-((1R,5S,6R)-6-(1-isopropyl-1H-1,2,4-triazol-3-yl)-3-azabicyclo[3.1.0]hexan-3-yl)-3,6-dimethyl-4-oxo-3,4-dihydroquinazolin-8-yl)ethyl)amino)-N-(methylsulfonyl) picolinamide]: the IC50 was less than 0.25 µM in assay [1] (setting [3]) and not below 5 µM in assay [2] (setting [4]).

As to `Cc1cc([C@@H](C)Nc2ccc(Cl)nc2C(=O)NS(C)(=O)=O)c2nc(N3CCC(n4cc(C#N)cn4)CC3)n(C)c(=O)c2c1` [Compound 686, (R)-6-chloro-3-((1-(2-(4-(4-cyano-1H-pyrazol-1-yl)piperidin-1-yl)-3,6-dimethyl-4-oxo-3,4-dihydroquinazolin-8-yl)ethyl)amino)-N-(methylsulfonyl) picolinamide], the results for the IC50 in assay [1] (setting [3]) and in assay [2] (setting [4]) were less than 0.25 µM and 0.25 to 0.5 µM, respectively.

Take `Cc1cc([C@@H](C)Nc2ccc(Cl)nc2C(=O)NS(C)(=O)=O)c2nc(-c3ccc4nn(C)nc4c3)n(C)c(=O)c2c1` [Compound 781, (R)-6-chloro-3-((1-(3,6-dimethyl-2-(2-methyl-2H-benzo[d][1,2,3]triazol-5-yl)-4-oxo-3,4-dihydroquinazolin-8-yl)ethyl)amino)-N-(methylsulfonyl) picolinamide]: the IC50 is less than 0.25 µM in assay [1] (setting [3]) and 1 to 5 µM in assay [2] (setting [4]).

Turning to `Cc1cc([C@@H](C)Nc2ccc(Cl)nc2C(=O)NS(C)(=O)=O)c2nc(N3Cc4cnc(C)nc4C3)n(C)c(=O)c2c1` [Compound 612, (R)-6-chloro-3-((1-(3,6-dimethyl-2-(2-methyl-5,7-dihydro-6H-pyrrolo[3,4-d]pyrimidin-6-yl)-4-oxo-3,4-dihydroquinazolin-8-yl)ethyl)amino)-N-(methylsulfonyl) picolinamide], the results for the IC50 in assay [1] (setting [3]) and in assay [2] (setting [4]) were 0.25 to 0.5 µM and 1 to 5 µM, respectively.

On to `Cc1cc([C@@H](C)Nc2ccc(Cl)nc2C(=O)NS(C)(=O)=O)c2nc(N3CCC(c4cc(C)no4)CC3)n(C)c(=O)c2c1` [Compound 539, (R)-6-chloro-3-((1-(3,6-dimethyl-2-(4-(3-methylisoxazol-5-yl)piperidin-1-yl)-4-oxo-3,4-dihydroquinazolin-8-yl)ethyl)amino)-N-(methylsulfonyl) picolinamide], for which the IC50 is less than 0.25 µM in assay [1] (setting [3]) and not below 5 µM in assay [2] (setting [4]).

Turning to `C[C@@H](Nc1ccc(Cl)nc1C(=O)NS(C)(=O)=O)c1cc(F)cc2c(=O)n(C)c(-c3ccc4nn(C)cc4c3)nc12` [Compound 805, (R)-6-chloro-3-((1-(6-fluoro-3-methyl-2-(2-methyl-2H-indazol-5-yl)-4-oxo-3,4-dihydroquinazolin-8-yl)ethyl)amino)-N-(methylsulfonyl) picolinamide], the IC50 in assay [1] (setting [3]) lay in the range of 0.25 to 0.5 µM; in assay [2] (setting [4]) it was 1 to 5 µM.

`Cc1cc([C@@H](C)Nc2ccc(Cl)nc2C(=O)NS(C)(=O)=O)c2nc(N3C[C@@H]4[C@H](C3)[C@H]4n3nccc3C)n(C)c(=O)c2c1` [Compound 417, 6-chloro-3-(((R)-1-(3,6-dimethyl-2-((1R,5S,6S)-6-(5-methyl-1H-pyrazol-1-yl)-3-azabicyclo[3.1.0]hexan-3-yl)-4-oxo-3,4-dihydroquinazolin-8-yl)ethyl)amino)-N-(methylsulfonyl) picolinamide]: the IC50 is less than 0.25 µM in assay [1] (setting [5]) and 1 to 5 µM in assay [2] (setting [6]).

`Cc1cc([C@@H](C)Nc2ccc(Cl)nc2C(=O)NS(C)(=O)=O)c2nc(N3[C@@H]4CC[C@H]3C[C@H](c3cnn(C)c3)C4)n(C)c(=O)c2c1` [Compound 298, 6-chloro-3-(((R)-1-(3,6-dimethyl-2-((1R,3S,5S)-3-(1-methyl-1H-pyrazol-4-yl)-8-azabicyclo[3.2.1]octan-8-yl)-4-oxo-3,4-dihydroquinazolin-8-yl)ethyl)amino)-N-(methylsulfonyl) picolinamide]: the IC50 in assay [1] (setting [5]) was less than 0.25 µM; in assay [2] (setting [6]), not below 5 µM.

Consider `Cc1cc([C@@H](C)Nc2ccc(Cl)nc2C(=O)NS(C)(=O)=O)c2nc(N3CC[C@@H](Oc4cncnc4)C3)n(C)c(=O)c2c1` [Compound 707, 6-chloro-3-(((R)-1-(3,6-dimethyl-4-oxo-2-((R)-3-(pyrimidin-5-yloxy)pyrrolidin-1-yl)-3,4-dihydroquinazolin-8-yl)ethyl)amino)-N-(methylsulfonyl) picolinamide], for which the IC50 in assay [1] (setting [3]) is 0.25 to 0.5 µM; in assay [2] (setting [4]), 1 to 5 µM.

For `CC(=O)N1CCN(c2ncc(-c3nc4c([C@@H](C)Nc5ccc(Cl)nc5C(=O)NS(C)(=O)=O)cc(C)cc4c(=O)n3C)cc2F)CC1` [Compound 259, (R)-3-((1-(2-(6-(4-acetylpiperazin-1-yl)-5-fluoropyridin-3-yl)-3,6-dimethyl-4-oxo-3,4-dihydroquinazolin-8-yl)ethyl)amino)-6-chloro-N-(methylsulfonyl) picolinamide], the concentration for half-maximal inhibition (IC50) in assay [1] (setting [5]) is less than 0.25 µM; in assay [2] (setting [6]), 1 to 5 µM.

`Cc1cc([C@@H](C)Nc2ccc(Cl)nc2C(=O)NS(C)(=O)=O)c2nc(N3C[C@@H]4[C@H](C3)[C@H]4c3noc(C)n3)n(C)c(=O)c2c1` [Compound 465, 6-chloro-3-(((R)-1-(3,6-dimethyl-2-((1R,5S,6R)-6-(5-methyl-1,2,4-oxadiazol-3-yl)-3-azabicyclo[3.1.0]hexan-3-yl)-4-oxo-3,4-dihydroquinazolin-8-yl)ethyl)amino)-N-(methylsulfonyl) picolinamide]: the IC50 in assay [1] (setting [3]) was less than 0.25 µM; in assay [2] (setting [4]) it was 1 to 5 µM.

With `Cc1cc([C@@H](C)Nc2ccc(Cl)nc2C(=O)NS(C)(=O)=O)c2nc(N3C[C@@H]4[C@H](C3)[C@H]4c3ncc(C)o3)n(C)c(=O)c2c1` [Compound 653, 6-chloro-3-(((R)-1-(3,6-dimethyl-2-((1R,5S,6R)-6-(5-methyloxazol-2-yl)-3-azabicyclo[3.1.0]hexan-3-yl)-4-oxo-3,4-dihydroquinazolin-8-yl)ethyl)amino)-N-(methylsulfonyl) picolinamide], the IC50 in assay [1] (setting [3]) fell in the range of 0.25 to 0.5 µM; in assay [2] (setting [4]), 1 to 5 µM.

`Cc1cc([C@@H](C)Nc2ccc(Cl)nc2C(=O)NS(C)(=O)=O)c2nc(N3C[C@@H]4[C@H](C3)[C@H]4c3ccnn3C)n(C)c(=O)c2c1` [Compound 296, 6-chloro-3-(((R)-1-(3,6-dimethyl-2-((1R,5S,6R)-6-(1-methyl-1H-pyrazol-5-yl)-3-azabicyclo[3.1.0]hexan-3-yl)-4-oxo-3,4-dihydroquinazolin-8-yl)ethyl)amino)-N-(methylsulfonyl) picolinamide]: the figures for the IC50 in assay [1] (setting [5]) and in assay [2] (setting [6]) were 0.25 to 0.5 µM and 1 to 5 µM, respectively.

With `Cc1cc([C@@H](C)Nc2ccc(Cl)nc2C(=O)NS(C)(=O)=O)c2nc(N3C[C@@H]4[C@H](C3)[C@H]4c3nc(C)no3)n(C)c(=O)c2c1` [Compound 742, 6-chloro-3-(((R)-1-(3,6-dimethyl-2-((1R,5S,6R)-6-(3-methyl-1,2,4-oxadiazol-5-yl)-3-azabicyclo[3.1.0]hexan-3-yl)-4-oxo-3,4-dihydroquinazolin-8-yl)ethyl)amino)-N-(methylsulfonyl) picolinamide], the IC50 in assay [1] (setting [3]) is 0.25 to 0.5 µM; in assay [2] (setting [4]) it was 1 to 5 µM.

`Cc1cc([C@@H](C)Nc2ccc(Cl)nc2C(=O)NS(C)(=O)=O)c2nc(N3CCC(c4cnc(C)nc4)CC3)n(C)c(=O)c2c1` [Compound 261, (R)-6-chloro-3-((1-(3,6-dimethyl-2-(4-(2-methylpyrimidin-5-yl)piperidin-1-yl)-4-oxo-3,4-dihydroquinazolin-8-yl)ethyl)amino)-N-(methylsulfonyl) picolinamide]: the half-inhibitory concentration (IC50) in assay [1] (setting [5]) is less than 0.25 µM; in assay [2] (setting [6]) it was 1 to 5 µM.

Regarding `Cc1cc([C@@H](C)Nc2ccc(Cl)nc2C(=O)NS(C)(=O)=O)c2nc(-c3ccc(Nc4ccccc4C)nc3)n(C)c(=O)c2c1` [Compound 283, (R)-6-chloro-3-((1-(3,6-dimethyl-4-oxo-2-(6-(o-tolylamino)pyridin-3-yl)-3,4-dihydroquinazolin-8-yl)ethyl)amino)-N-(methylsulfonyl) picolinamide], the concentration for half-maximal inhibition (IC50) is less than 0.25 µM in assay [1] (setting [5]) and not below 5 µM in assay [2] (setting [6]).

Consider `Cc1cc([C@@H](C)Nc2ccc(Cl)nc2C(=O)NS(C)(=O)=O)c2nc(N3CC[C@H](Oc4ccnn4C)C3)n(C)c(=O)c2c1` [Compound 351, 6-chloro-3-(((R)-1-(3,6-dimethyl-2-((S)-3-((1-methyl-1H-pyrazol-5-yl)oxy)pyrrolidin-1-yl)-4-oxo-3,4-dihydroquinazolin-8-yl)ethyl)amino)-N-(methylsulfonyl) picolinamide], for which the concentration for half-maximal inhibition (IC50) in assay [1] (setting [5]) is less than 0.25 µM; in assay [2] (setting [6]), 1 to 5 µM.

With `Cc1cc([C@@H](C)Nc2ccc(Cl)nc2C(=O)NS(C)(=O)=O)c2nc(N3C[C@H]4C[C@@H]3CN4c3cnc(C)cn3)n(C)c(=O)c2c1` [Compound 577, 6-chloro-3-(((R)-1-(3,6-dimethyl-2-((1R,4R)-5-(5-methylpyrazin-2-yl)-2,5-diazabicyclo[2.2.1]heptan-2-yl)-4-oxo-3,4-dihydroquinazolin-8-yl)ethyl)amino)-N-(methylsulfonyl) picolinamide], the figures for the IC50 in assay [1] (setting [3]) and in assay [2] (setting [4]) were 0.25 to 0.5 µM and not below 5 µM, respectively.

As a reminder, the IC50 is the concentration that gives 50% inhibition.
